Test results reported in patent US20070184021A1, “Use of caspase inhibitors as a therapeutic agent against radiation-induced injury” (priority 2002, published 2007).
Residues, ends and D or L forms follow the SMILES beside them. *: point of attachment. Cbz = O=C(OCc1ccccc1)*; CH2F = FC*

How the values were obtained:
Lin− Sca1+ c-kit+ cells = assay: Apoptosis assay, annexin V/7-AAD flow cytometry of irradiated Lin- cells, HSC gate; format: cell-based, mouse; settings: for IR-induced apoptosis: 4 Gy
Protocol: (§1) Isolation of lineage negative hematopoietic (Lin) cells: BM mononuclear cells were incubated with biotin-conjugated rat antibodies specific for murine CD5, Mac-1, CD45R/B220, Ter-119 and Gr-1. The labeled mature lymphoid and myeloid cells were removed twice after they were incubated with goat anti-rat IgG paramagnetic beads (Dynal Inc, Lake Success, N.Y.) at a bead:cell ratio of approximately 4:1 and exposed to a magnetic field. The isolated Lin- cells were washed twice with 2% FCS/HBSS and resuspended in complete medium (RPMI1640 medium with 10%FCS, 200 mM L-glutamine and 100 U/ml penicillin and streptomycin) at 1×10^6/ml.
(§2) Ionizing radiation (IR). Aliquots of 2 ml of Lin- cells (1×10^6/ml in complete medium) were placed into a cell culture tube and exposed to 4 Gy IR on a rotating platform in a Mark IV^137Cesium gamma-irradiator (JL Shepherd, Glendale, Calif.) at a dose rate of 1.21 Gy/min.
(§3) Apoptosis assays. Lin^− cells (1×10^6/ml in complete medium) were exposed to 4 Gy IR or non-irradiated (Control). They were incubated in wells of a 24-well plate at 37° C., 5% CO2 and 100% humidity for 6 or 18 h. For z-VAD treatment studies, the cells were pre-incubated with vehicle (0.2% DMSO) or 100 μM z-VAD for 1 h prior to IR exposure, or they were treated with z-VAD immediately before or 30 min, 1 h, 2 h or 4 h after IR exposure. After 6 or 18 h incubation, 0.5 ml cells ([…]) were washed once with 1 ml 0.1% BSA/PBS. The cells were centrifuged for 5 min, 350× g at 4° C. Next, the cells were incubated with anti-CD16/32 at 4° C. for 15 min to block the Fcγ receptors and then stained with Sca-1-PE and c-kit-APC antibodies for 20 min at 4° C. in the dark. The cells were washed twice with 1 ml 0.1% BSA/PBS, centrifuged for 5 min, 350× g at RT. Next, 100 μl 1× binding buffer (10 mM HEPES, pH 7.4, 140 mM NaCl, and 2.5 mM CaCl2) was added to the pellet along with 3 μl Annexin V-FITC (Pharmingen, San Diego, Calif.) and 5 μl 7-AAD (10 μg/ml, from Molecular Probes, Eugene, Oreg.). The cell suspension was gently mixed and incubated for 15 min at room temperature. The cells were diluted in 400 μl 1× binding buffer immediately prior to subjection of FACS analysis. In all experiments, PE and APC isotype controls and FITC and 7-AAD positive controls were included as appropriate. Two or four-color flow cytometric analyses were performed using a FACS Caliber (Becton Dickinson, San Jose, Calif.).

Male C57BL/6 mice = assay: Protection of mice from IR-induced lethality; format: in vivo, mouse
Protocol: FIG. 9. z-VAD protects mice from IR-induced lethality. Male C57BL/6 mice were given two i.p. injections of vehicle (0.25 ml PBS with 0.2% DMSO) or z-VAD (6 mg/kg) at one hour prior to and 5 h after exposure to a lethal dose of IR (10.5 Gy). The survival of these mice was monitored daily up to 24 days after exposure to IR. n=6 mice/group).
z-VAD protects mice from IR-induced lethality. Finally, the inventors examined if z-VAD acts as a radioprotectant to protect mice from IR-induced death. Male C57BL/6 mice were given two i.p. injections of vehicle (0.25 ml PBS with 0.2% DMSO) or z-VAD (6 mg/kg) at one hour prior to and 5 h after exposure to a lethal dose of IR (10.5 Gy). […] In contrast, 50% mice receiving z-VAD injections remain alive up to today (24 days) after IR.

Lin− Sca1− c-kit+ cells = assay: Apoptosis assay, annexin V/7-AAD flow cytometry of irradiated Lin- cells, progenitor gate; format: cell-based, mouse
Protocol: as §1, §2, §3

mouse BM cells = assay: Cobblestone area-forming cell (CAFC) assay of irradiated BM cells; format: cell-based; settings: 100 μM z-VAD 1 h prior to 4 Gy IR
Protocol: FIGS. 8A-B. z-VAD partially protects HSC from IR-induced suppression of hematopoietic function. BM cells were pre-incubated with vehicle or 100 μM z-VAD for 1 h and then were exposed to 4 Gy IR. BM cells without IR were used as control. Six hours after the IR, the cells were overlaid on FBMD-1 stromal cell layers. The frequency of CAFC was determined on 7, 14, 21, 28 and 35 days after IR. FIG. 8A—Frequency of CAFC. FIG. 8B—Survival fraction of CAFC as compared to that of control cells. The data presented are mean +/− SEM (n=3 individual mice/groups). Vehicle/IR vs z-VAD/IR, p<0.01 by ANOVA.
z-VAD protects HSC from IR-induced suppression of hematopoietic function. To determine if inhibition of IR-induced HSC apoptosis by z-VAD preserves their hematopoietic function, mouse BM cells were pre-incubated with vehicle (0.2% DMSO) or z-VAD (100 μM) one hour prior to exposure to IR (4 Gy). The hematopoietic function of these cells were analyzed by cobblestone area-forming cell (CAFC) assay (Ploemacher et al., 1989). This in vitro assay provides an estimate of the hematopoietic function of a spectrum of CAFC day-types that correspond to CFU-granulocyte macrophage (CFU-GM) (CAFC day 7), CFU-spleen (CFU-S) day-12 (CAFC day 14), and the primitive HSC with long-term repopulating ability (CAFC day 28-35) (Ploemacher et al., 1989).

[1] = 100 μM z-VAD 1 h prior to 4 Gy IR
[2] = 100 μM z-VAD 1 h prior to 4 Gy IR, 6 and 18 h post IR

COC(=O)C[C@H](NC(=O)[C@H](C)NC(=O)[C@@H](NC(=O)OCc1ccccc1)C(C)C)C(=O)CF [z-VAD, Z-Val-Ala-Asp (OCH3)-Fluoromethylketone, methyl ester] (Cbz-Val-Ala-Asp(OMe)-CH2F)
necrotic cell death (7-AAD+ cells) (Lin− Sca1+ c-kit+ cells; [1]): did not lead to an increase | IR-induced reduction of cell numbers (Lin− Sca1+ c-kit+ cells; [2]): completely prevented | IR-induced apoptosis (annexin V+ and annexin V+/7-AAD+ cells) (Lin− Sca1+ c-kit+ cells; 100 μM z-VAD 1 h prior to 4 Gy IR, 6 h after IR): significantly inhibited | IR-induced apoptosis (annexin V+ and annexin V+/7-AAD+ cells) (Lin− Sca1+ c-kit+ cells; 100 μM z-VAD 1 h prior to 4 Gy IR, 18 h after IR): completely protected | IR-induced apoptosis (Lin− Sca1+ c-kit+ cells; 100 μM z-VAD given at 4 h post IR): only partially inhibited | IR-induced apoptosis (Lin− Sca1+ c-kit+ cells; 100 μM z-VAD given prior to IR (-1 h) or up to 2 h post IR): abrogated | mice alive after IR (Male C57BL/6 mice; z-VAD 6 mg/kg i.p. 1 h prior to and 5 h after 10.5 Gy IR, 24 days after IR, n=6): 50% | protection from IR-induced death (Male C57BL/6 mice; z-VAD 6 mg/kg i.p. twice, 1 h prior to and 5 h after 10.5 Gy IR): protected half | necrotic cell death (7-AAD+ cells) (Lin− Sca1− c-kit+ cells; [1]): did not lead to an increase | IR-induced apoptosis (annexin V+ and annexin V+/7-AAD+ cells) (Lin− Sca1− c-kit+ cells; 100 μM z-VAD 1 h prior to 4 Gy IR, 6 and 18 h after IR): attenuated | IR-induced reduction of cell numbers (Lin− Sca1− c-kit+ cells; [2]): only partially protected | numbers of cells as percentage of un-irradiated control cells (Lin− Sca1− c-kit+ cells; 100 μM z-VAD 1 h prior to 4 Gy IR, 18 h post IR): about 29% | IR-induced apoptosis, compared with the effect in Lin− Sca1+ c-kit+ cells (Lin− Sca1− c-kit+ cells; 100 μM z-VAD given -1 h to 4 h relative to 4 Gy IR): to a less extent | CAFC frequency and survival fraction vs vehicle-treated cells exposed to IR (mouse BM cells; p<0.01): significantly increased | survival fraction of CAFC relative to vehicle-treated cells (mouse BM cells; CAFC day 7-35): about 2 fold | survival fraction of CAFC (mouse BM cells; CAFC day 7): 0.211 | survival fraction of CAFC (mouse BM cells; CAFC day 14): 0.058 | survival fraction of CAFC (mouse BM cells; CAFC day 21): 0.148 | survival fraction of CAFC (mouse BM cells; last value of the list, CAFC day 28 or 35 (four values printed for five days)): 0.453
